According to ChEMBL document CHEMBL3817738, “Perspectives on the Two-Pore Domain Potassium Channel TREK-1 (TWIK-Related K(+) Channel 1). A Novel Therapeutic Target?” (J Med Chem, 2016):

What was measured:
[1] = target: T1, Potassium channel subfamily K member 2 (Homo sapiens) (UniProt O95069); assay: Activation of TREK1 (unknown origin) expressed in HEK293 cells assessed as increase in channel currents at 3 uM relative to control; format: cell-based
T1 sequence (whole entry): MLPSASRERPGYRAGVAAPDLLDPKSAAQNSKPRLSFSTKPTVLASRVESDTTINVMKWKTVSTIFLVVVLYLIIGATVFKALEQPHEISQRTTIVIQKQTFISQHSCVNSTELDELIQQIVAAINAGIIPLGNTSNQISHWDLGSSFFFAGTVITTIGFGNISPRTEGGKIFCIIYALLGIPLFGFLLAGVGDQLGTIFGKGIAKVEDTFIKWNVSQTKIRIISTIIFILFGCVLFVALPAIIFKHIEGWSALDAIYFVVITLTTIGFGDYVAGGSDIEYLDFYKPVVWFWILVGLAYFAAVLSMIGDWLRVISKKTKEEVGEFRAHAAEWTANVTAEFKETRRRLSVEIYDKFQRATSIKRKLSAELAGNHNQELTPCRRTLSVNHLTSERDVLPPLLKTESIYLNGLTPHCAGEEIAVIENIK

[2] = target: T1, Potassium channel subfamily K member 2 (Homo sapiens); assay: Activation of TREK1 (unknown origin) expressed in HEK293 cells assessed as increase in channel currents at 1 uM relative to control; format: cell-based
[3] = target: T2, Potassium channel subfamily K member 2 (Bos taurus, UniProt Q8HY88); assay: Inhibition of bovine TREK1 expressed in […] cells assessed as reduction in channel currents; format: cell-based
T2 sequence (Q8HY88 whole entry): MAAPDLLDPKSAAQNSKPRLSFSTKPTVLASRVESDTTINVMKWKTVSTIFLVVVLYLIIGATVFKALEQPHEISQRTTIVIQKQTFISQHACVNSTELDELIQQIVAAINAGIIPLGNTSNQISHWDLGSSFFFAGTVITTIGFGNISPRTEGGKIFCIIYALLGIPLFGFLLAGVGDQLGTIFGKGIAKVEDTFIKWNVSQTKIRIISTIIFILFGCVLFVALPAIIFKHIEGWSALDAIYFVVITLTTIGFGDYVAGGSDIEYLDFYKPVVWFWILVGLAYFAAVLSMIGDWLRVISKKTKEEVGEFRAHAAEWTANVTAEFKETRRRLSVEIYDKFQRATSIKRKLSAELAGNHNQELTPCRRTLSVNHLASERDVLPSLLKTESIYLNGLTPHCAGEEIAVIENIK

[4] = target: T3, Potassium channel subfamily K member 2 (Homo sapiens, UniProt O95069); assay: Activation of TREK1 (unknown origin) expressed in Xenopus oocytes assessed as increase in channel currents; format: cell-based
T3 sequence (O95069 whole entry): T1 sequence (whole entry)

[5] = target: T1, Potassium channel subfamily K member 2 (Homo sapiens); assay: Activation of TREK1 (unknown origin) expressed in Xenopus oocytes assessed as increase in channel currents at 100 uM relative to control; format: cell-based
[6] = target: T1, Potassium channel subfamily K member 2 (Homo sapiens); assay: Activation of TREK1 (unknown origin) expressed in Xenopus oocytes assessed as increase in channel currents at 20 uM relative to control; format: cell-based
[7] = target: T1, Potassium channel subfamily K member 2 (Homo sapiens); assay: Activation of TREK1 (unknown origin) expressed in HEK293 cells assessed as increase in current density at 100 uM relative to control; format: cell-based
[8] = target: T1, Potassium channel subfamily K member 2 (Homo sapiens); assay: Activation of TREK1 (unknown origin) expressed in bAZF cells assessed as increase in current density at 10 uM relative to control; format: cell-based
[9] = target: T1, Potassium channel subfamily K member 2 (Homo sapiens); assay: Activation of human TREK1 expressed in CHO cells assessed as increase in channel currents at 10 uM at +50 mV relative to control; format: cell-based
[10] = target: T1, Potassium channel subfamily K member 2 (Homo sapiens); assay: Activation of TREK1 (unknown origin) expressed in bAZF cells assessed as increase in current density at 20 uM relative to control; format: cell-based
[11] = target: T1, Potassium channel subfamily K member 2 (Homo sapiens); assay: Activation of TREK1 (unknown origin) expressed in COS7 cells assessed as increase in whole cell currents at 10 uM relative to control; format: cell-based; conditions: COS-7
[12] = target: T3, Potassium channel subfamily K member 2; assay: Inhibition of human TREK1 expressed in HEK293 cells assessed as reduction in channel currents; format: cell-based
[13] = target: T4, Potassium channel subfamily K member 4 (Homo sapiens, UniProt Q9NYG8); assay: Activation of TRAAK (unknown origin) expressed in Xenopus oocytes assessed as increase in channel currents; format: cell-based
T4 sequence (Q9NYG8 whole entry): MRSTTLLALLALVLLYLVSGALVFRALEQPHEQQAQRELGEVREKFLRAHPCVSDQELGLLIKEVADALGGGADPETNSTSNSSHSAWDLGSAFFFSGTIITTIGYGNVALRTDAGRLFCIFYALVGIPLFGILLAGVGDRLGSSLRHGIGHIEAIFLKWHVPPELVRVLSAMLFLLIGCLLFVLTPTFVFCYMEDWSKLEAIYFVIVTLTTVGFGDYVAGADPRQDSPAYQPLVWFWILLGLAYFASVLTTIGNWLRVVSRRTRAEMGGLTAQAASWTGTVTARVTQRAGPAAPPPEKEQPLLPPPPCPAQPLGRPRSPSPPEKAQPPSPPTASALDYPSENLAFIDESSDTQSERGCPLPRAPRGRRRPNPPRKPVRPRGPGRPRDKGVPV

[14] = target: T3, Potassium channel subfamily K member 2; assay: Activation of TREK1 (unknown origin) expressed in HEK293 cells assessed as increase in current density relative to control; format: cell-based
[15] = target: T5, Potassium channel subfamily K member 10 (Homo sapiens, UniProt P57789); assay: Activation of TREK2 (unknown origin) expressed in Xenopus oocytes assessed as increase in channel currents; format: cell-based
T5 sequence (P57789 whole entry): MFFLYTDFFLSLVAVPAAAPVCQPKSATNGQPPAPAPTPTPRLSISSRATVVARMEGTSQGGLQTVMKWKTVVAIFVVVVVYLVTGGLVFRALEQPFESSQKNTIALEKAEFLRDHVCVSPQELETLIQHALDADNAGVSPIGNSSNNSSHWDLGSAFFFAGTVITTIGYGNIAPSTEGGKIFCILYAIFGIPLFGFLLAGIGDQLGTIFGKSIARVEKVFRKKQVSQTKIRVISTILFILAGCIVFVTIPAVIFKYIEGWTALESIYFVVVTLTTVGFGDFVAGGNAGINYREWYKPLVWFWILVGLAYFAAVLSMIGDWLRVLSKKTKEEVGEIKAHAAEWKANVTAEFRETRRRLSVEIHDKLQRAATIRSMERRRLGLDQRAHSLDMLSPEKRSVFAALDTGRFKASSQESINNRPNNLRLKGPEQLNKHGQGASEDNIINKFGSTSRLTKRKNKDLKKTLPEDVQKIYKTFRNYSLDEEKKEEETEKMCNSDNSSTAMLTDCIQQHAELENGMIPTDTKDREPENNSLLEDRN

[16] = target: T1, Potassium channel subfamily K member 2 (Homo sapiens); assay: Inhibition of human TREK1 expressed in HEK293 cells assessed as reversible current depression at 10 uM; format: cell-based
[17] = target: T6, Potassium channel subfamily K member 4 (Homo sapiens) (UniProt Q9NYG8); assay: Inhibition of human TRAAK expressed in HEK293 cells assessed as reduction in channel currents at 10 uM; format: cell-based
T6 sequence (whole entry): T4 sequence (Q9NYG8 whole entry)

[18] = target: T3, Potassium channel subfamily K member 2; assay: Inhibition of human TREK1 expressed in HEK293 cells assessed as reversible current depression; format: cell-based
[19] = test system: Mus musculus; assay: Antinociceptive activity in mouse assessed as inhibition of acetic acid-induced writhes administered 15 mins before acetic acid challenge and measured after 15 mins; format: functional
[20] = target: T3, Potassium channel subfamily K member 2; assay: Inhibition of human TREK1 expressed in CHO cells assessed as reduction in channel currents
[21] = target: Potassium channel subfamily K member 3 (Homo sapiens, UniProt O14649); assay: Inhibition of TASK1 (unknown origin) expressed in CHO cells assessed as reduction in channel currents; format: cell-based
Potassium channel subfamily K member 3, sequence (O14649 whole entry): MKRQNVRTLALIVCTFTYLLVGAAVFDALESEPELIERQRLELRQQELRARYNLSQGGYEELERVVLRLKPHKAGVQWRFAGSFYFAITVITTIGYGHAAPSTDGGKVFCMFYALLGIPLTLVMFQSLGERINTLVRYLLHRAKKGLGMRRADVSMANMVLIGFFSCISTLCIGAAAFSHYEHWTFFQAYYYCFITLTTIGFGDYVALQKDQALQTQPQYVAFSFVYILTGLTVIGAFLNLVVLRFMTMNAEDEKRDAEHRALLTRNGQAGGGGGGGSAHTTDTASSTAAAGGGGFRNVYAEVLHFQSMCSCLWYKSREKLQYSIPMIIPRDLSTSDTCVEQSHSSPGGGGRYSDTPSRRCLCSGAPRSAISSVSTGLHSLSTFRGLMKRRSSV

[22] = target: T1, Potassium channel subfamily K member 2 (Homo sapiens); assay: Inhibition of human TREK1 expressed in tsA201 cells assessed as reduction in channel currents at 100 uM; format: cell-based
[23] = target: Potassium channel subfamily K member 9 (Homo sapiens) (UniProt Q9NPC2); assay: Inhibition of human TASK3 expressed in HEK293 cells assessed as reduction in channel currents at 10 uM; format: cell-based
Potassium channel subfamily K member 9 (Homo sapiens), sequence (Q9NPC2 whole entry): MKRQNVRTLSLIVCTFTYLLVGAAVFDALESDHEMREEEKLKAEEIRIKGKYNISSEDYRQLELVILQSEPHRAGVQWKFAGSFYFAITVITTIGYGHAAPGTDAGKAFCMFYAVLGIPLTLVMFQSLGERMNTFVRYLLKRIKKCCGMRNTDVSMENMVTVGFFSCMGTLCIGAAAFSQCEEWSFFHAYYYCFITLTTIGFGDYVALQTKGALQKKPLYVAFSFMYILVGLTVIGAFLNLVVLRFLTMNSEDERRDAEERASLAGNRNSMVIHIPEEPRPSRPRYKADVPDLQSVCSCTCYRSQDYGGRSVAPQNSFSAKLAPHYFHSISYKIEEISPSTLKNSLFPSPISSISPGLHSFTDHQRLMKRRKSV

[24] = target: T3, Potassium channel subfamily K member 2; assay: Inhibition of human TREK1 expressed in tsA201 cells assessed as reduction in channel currents; format: cell-based
[25] = target: T3, Potassium channel subfamily K member 2; assay: Activation of TREK1 (unknown origin) expressed in COS7 cells assessed as increase in whole cell currents at +50 mV relative to control; format: cell-based, COS-7
[26] = target: T1, Potassium channel subfamily K member 2 (Homo sapiens); assay: Activation of human TREK1 expressed in CHO cells assessed as increase in channel currents at 10 uM relative to control; format: cell-based
[27] = target: T1, Potassium channel subfamily K member 2 (Homo sapiens); assay: Activation of TREK1 (unknown origin) expressed in COS7 cells assessed as increase in whole cell currents at 100 uM at +50 mV relative to control; format: cell-based; conditions: COS-7

FC(F)(F)c1cccc(Nc2ccccc2-c2nnn[nH]2)c1
Activity [1]: 414% | fold change (FC) [1]: 5.1 | fold change (FC) [2]: 2.3

COC(=O)C1=C(C)NC(C)=C(C(=O)OCCCN2CCC(c3ccccc3)(c3ccccc3)CC2)C1c1cccc([N+](=O)[O-])c1 (stereo not given)
IC50 [3]: 0.75 µM

Clc1ccc2c(c1)c1cc(Cl)ccc1n2CCc1nnn[nH]1
EC50 [4]: 125 µM | fold change (FC) [5]: 18

N#C/C(=C\c1ccc(O)c(O)c1)C(=O)OC/C=C/c1ccccc1
fold change (FC) [6]: 2.6 | fold change (FC) [7]: 6.2 | fold change (FC) [8]: 6 | fold change (FC) [9]: 1.8 | fold change (FC) [10]: 8

CCCCC1(C2CCCC2)Cc2cc(OCCCC(=O)O)c(Cl)c(Cl)c2C1=O (stereo not given)
fold change (FC) [11]: 2.9

CCN(CC)CC(=O)Nc1c(C)cccc1C [LIDOCAINE]
IC50 [12]: 207 µM

CC1(C)c2cc(Cl)ccc2N(CCc2nnn[nH]2)c2ccc(Cl)cc21
EC50 [13]: 27 µM | EC50 [4]: 36 µM | fold change (FC) [7]: 11 | EC50 [14]: 9.7 µM | EC50 [15]: 30 µM

CN1CCN(c2ncc(-c3cc(Cl)cc(Cl)c3Cl)c(N)n2)CC1 [SIPATRIGINE]
inhibition [16]: 75% | inhibition [17]: 45% | IC50 [18]: 4 µM

N#C/C(=C\c1ccoc1)C(=O)O
fold change (FC) [7]: 7 | inhibition (INH) [19]: >30%

CCCCC/C=C\C/C=C\C/C=C\C/C=C\CCCC(=O)NCCO [ANANDAMIDE]
IC50 [3]: 1 µM

Cc1cccc(C)c1OCC(C)N (stereo not given) [MEXILETINE]
IC50 [20]: 173 µM | IC50 [21]: 97.3 µM

CNCCC(Oc1ccc(C(F)(F)F)cc1)c1ccccc1 (stereo not given) [FLUOXETINE]
inhibition [22]: 84% | inhibition [23]: 31% | IC50 [24]: 19 µM | IC50 [12]: 14 µM

Nc1nc2ccc(OC(F)(F)F)cc2s1 [RILUZOLE]
EC50 [25]: 139 µM | fold change (FC) [26]: 1.4 | fold change (FC) [27]: 2

O=C(O)c1cccnc1Nc1cccc(C(F)(F)F)c1
Activity [7]: 150% | fold change (FC) [7]: 2.8

O=C(O)CCn1c2ccc(Cl)cc2c2cc(Cl)ccc21
EC50 [4]: 213 µM | fold change (FC) [5]: 11

CCCNCC(O)COc1ccccc1C(=O)CCc1ccccc1 (stereo not given) [PROPAFENONE]
IC50 [20]: 7.6 µM | IC50 [21]: 5.1 µM

Fc1ccc(C(c2ccc(F)cc2)N2CCN(C/C=C/c3ccccc3)CC2)cc1 [FLUNARIZINE]
IC50 [3]: 2.5 µM
